Experimental data as given in patent US11230544B1, “Substituted 1,3,4-thiadiazoles as GLS1 inhibitors” (MEDSHINE DISCOVERY INC., priority 2018, dated 2022).
Where a name gives a salt, the structure may show the parent alone.

Key:
[1] = target: T1, GLS1 (Homo sapiens, UniProt O94925); assay: Activity test of compounds in a GLS1 coupling reaction system; format: biochemical; conditions: enzyme GLS1 2 nM, 4.5 mM L-glutamine, 1 hour preincubation at 23° C.
T1 sequence (O94925 73-669 limits assumed): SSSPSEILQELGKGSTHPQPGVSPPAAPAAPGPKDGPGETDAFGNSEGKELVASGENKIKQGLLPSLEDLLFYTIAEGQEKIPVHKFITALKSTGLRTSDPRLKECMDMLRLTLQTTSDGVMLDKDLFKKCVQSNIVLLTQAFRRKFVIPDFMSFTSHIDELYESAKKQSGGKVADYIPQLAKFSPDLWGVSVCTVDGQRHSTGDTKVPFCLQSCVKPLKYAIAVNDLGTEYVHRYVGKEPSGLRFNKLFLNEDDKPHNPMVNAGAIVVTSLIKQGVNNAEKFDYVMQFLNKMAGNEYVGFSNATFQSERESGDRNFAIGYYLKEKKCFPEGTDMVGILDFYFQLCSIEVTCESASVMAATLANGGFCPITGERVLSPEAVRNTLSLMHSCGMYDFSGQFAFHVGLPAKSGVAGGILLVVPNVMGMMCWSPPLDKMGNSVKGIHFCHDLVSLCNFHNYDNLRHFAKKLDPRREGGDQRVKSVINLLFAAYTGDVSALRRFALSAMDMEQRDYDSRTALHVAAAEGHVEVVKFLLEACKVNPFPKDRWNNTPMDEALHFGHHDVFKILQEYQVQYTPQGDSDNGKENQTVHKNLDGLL
Experimental: Experimental Example 1: Activity Test of Compounds in a GLS1 Coupling Reaction System
The final concentration of each component in the final experimental buffer was 50 mM Tris-HCl pH 8.0, 0.25 mM EDTA, 150 mM K2HPO4, 0.1 mg/mL BSA, 1 mM DTT, and 0.01% o Triton X-100.
the 1× assay buffer was used to prepare “solution A” in the experiment (solution A contained L-glutamine, NAD+ and GLDH), and the final concentration of each component in the final experimental reaction system was 4.5 mM L-glutamine, 2 mM NAD+, and 4 U/mL GLDH; the 1× assay buffer was used to prepare “solution B” in the experiment—2× enzyme solution (solution B contained enzyme GLS1), and the final concentration of GLS1 in the final experimental reaction system was 2 nM.
The experiment plate was the plate prepared by Labcyte's ECHO that contained the gradient concentration of the compound and the corresponding DMSO solution before the experiment:
The experiment plate was taken out, and 20 μL of solution B (an enzyme GLS1 solution) was add to the 2nd to 23rd columns of the experiment plate, and then 20 μL of assay buffer was added to the 1st and 24th columns of the experiment plate, wherein the 1st and 24th columns were used as control groups of the experimental system; the plate was centrifuged at 1000 rpm for 30 seconds; the plate was sealed and incubated at 23° C. for 1 hour; I after 1 hour incubation, 20 μL of solution A was added to columns 1 to 24 of the experiment plate (i.e., addition of samples to the whole plate); the plate was centrifuged at 1000 […] for 30 seconds; the experiment plate was placed on SpectraMax 340PC, and read continuously for 20 minutes in the dynamic mode (the reading interval was set to 1 minute).

[2] = Pharmacokinetic evaluation of compounds in mice; format: in vivo; conditions: mouse, plasma, female C57BL/6 mice; for bioavailability: oral, gavage vs intravenous; for half-life: tail intravenous injection and gavage, read-out: T1/2 (half-life) (converted); for half-life / AUC(0-inf) / Cmax: route not given; for Cmax: read-out: Cmax (peak concentration)
Experimental: Experimental Example 2: Pharmacokinetic Evaluation of Compounds
Objective: To test the in vivo pharmacokinetics of the compounds in mice
C57BL/6 mice (female, 7-9 weeks old, Shanghai SLAC)
Experiment operations: The clear solution obtained by dissolving the test compound was administered to female C57BL/6 mice (overnight fasting, 7-9 weeks old) via tail intravenous injection and gavage, respectively. After administration of the test compound or the control compound, blood was collected from the mandibular vein of the intravenous injection group at 0.0833, 0.25, 0.5, 1, 2, 4, 6, 8 and 24 hours, and of the gavage group at 0.0833, 0.25, 0.5, 1, 2, 4, 6, 8 and 24 hours, respectively, and centrifuged to obtain plasma. The LC-MS/MS method was used to determine the blood drug concentration, and the WinNonlin™ Version 6.3 pharmacokinetic software was used to calculate the relevant pharmacokinetic parameters by the non-compartmental model linear logarithmic trapezoidal method.

[3] = tested on: human myeloma RPMI-8226 cell; assay: In vivo pharmacodynamic study, CB-17 SCID nude mouse subcutaneous xenograft model of human myeloma RPMI-8226 cell; set-up: species or system mouse xenograft of human cells; conditions: for Tumor volume (mm^3) (Day 14): Mean ± SEM, PO, Poma 1 mg/kg QD, CB-839 or compound 2 100 mg/kg (D1-D10) 150 mg/kg (D11-D14) BID
Description: Experimental Example 3 In Vivo Pharmacodynamic Study of a CB-17 SCID Nude Mouse Subcutaneous Xenograft Model of Human Myeloma RPMI-8226 Cell
Objective: Pomalidomide is used to treat multiple myeloma, and this experiment is used to study and evaluate the in vivo efficacy of the test compound combined with pomalidomide in the CB-17 SCID nude mouse subcutaneous xenograft model of human myeloma RPMI-8226 cell.
Experiment animals: female CB-17 SCID nude mice, 6 to 8 weeks old, with the body weigh of 18 to 22 grams; Supplier: Shanghai Lingchang Biological Technology Co., Ltd.
Human myeloma RPMI 8226 cells were cultured in a monolayer in vitro. The culture conditions were: RPMI 1640 medium (brand: gibco—22400089, batch: 1894220) supplemented with 10% fetal bovine serum, 100 U/mL penicillin and 100 μg/mL streptomycin, at 37° C. and 5% CO2. Conventional digestion treatment with pancreatin-EDTA for passage was carried out twice a week. When the cell confluence reached 80% to 90%, the cells were harvested, counted and inoculated.
0.2 mL (6×10^6 cells) of RPMI 8226 cells (supplemented with matrigel in a volume ratio of 1:1) were subcutaneously inoculated on the right back of each mouse. The grouping and administration were started when the average tumor volume reached 374 mm^3.
The test compound (compound 2) was formulated into a clear solution of 10 mg/mL, and the solvent was a 10 mM citric acid buffer containing 0.2% Tween-80 and 25% hydroxypropyl-β-cyclodextrin, pH=4. CB-839 was formulated into a clear solution of 10 mg/mL, and the solvent was a 10 mM citric acid buffer containing 25% hydroxypropyl-β-cyclodextrin, pH=2.2. Pomalidomide (Poma) was formulated into a clear solution of 0.1 mg/mL, and the solvent was 20% PEG400+80% (20% hydroxypropyl-β-cyclodextrin).
The experimental index was to investigate whether the tumor growth was inhibited, delayed or cured. Tumor diameter was measured twice a week with a vernier caliper. The calculation formula of tumor volume was V=0.5a×b^2, wherein a and b represented the long and short diameters of the tumor, respectively.
The anti-tumor efficacy of the compound was evaluated by TGI (%) or relative tumor proliferation rate T/C (%). TGI (%) reflected the tumor growth inhibition rate. Calculation of TGI (%): TGI (%)=[1−(average tumor volume at the end of administration in a treatment group−average tumor volume at the beginning of administration in this treatment group)/(average tumor volume at the end of administration in the solvent control group-average tumor volume at the beginning of administration in the solvent control group)]×100%.
Relative tumor proliferation rate T/C (%): the calculation formula was as follows: T/C %=TRTV/CRTV×100% (TRTV: mean RTV of the treatment group; CRTV: mean RTV of the negative control group). The relative tumor volume (RTV) was calculated according to the results of the tumor measurement. The calculation formula was RTV=Vt/V0, where V0 was the tumor volume measured at beginning of the grouping and administration (i.e., d0), and Vt was the tumor volume at the time of a certain measurement. TRTV and CRTV were obtained from the data on the same day.
Statistical analysis included mean value and standard error (SEM) of the tumor volume of each group at each time point (see Table 4 for specific data). […] The comparison between two groups was analyzed by T-test, and the comparison between three or more groups was analyzed by one-way ANOVA.
Statistical analysis of synergy: method for calculating Q value (also known as King's formula method) was as follows: Q=TGIA+B/(TGIA+TGIB−TGIA×TGIB). TGIA, TGIB and TGIA+B were the tumor inhibition rates when drug A was used alone, drug B was used alone, and drug A and drug B were used in combination, respectively.
In the experiment, the effect of the test compound on the weight of the animal was investigated. […]

SMILES	IC50 [1]	further results
COC(C(=O)Nc1nnc(NC2CC=C(c3cccnn3)CC2)s1)c1cc(OC(F)(F)F)ccc1F (single isomer, unassigned) [Compound 1]	0.132 µM	–
COC(C(=O)Nc1nnc(NC2CC=C(c3cccnn3)CC2)s1)c1cc(OC(F)(F)F)ccc1F (single isomer, unassigned) [Compound 2]	0.0965 µM	bioavailability [2]: 34.8%; half-life [2]: 3.93 h; AUC(0-inf) [2]: 134 µM·h; Cmax [2]: 36.8 µM
CO[C@H](C(=O)Nc1nnc(NC2CC=C(c3cc4cc[nH]c4nn3)CC2)s1)c1cc(OC(F)(F)F)ccc1F (stereo partly shown) [Compound 13 (trifluoroacetate salt)]	0.18 µM	–
Nc1cccc2c1C(=O)N(C1CCC(=O)NC1=O)C2=O (stereo not shown) [Poma, Pomalidomide]	–	Tumor volume (mm^3) (Day 14) ([3]; Day 14 after administration): 1542 ± 259 mm^3; Tumor volume (mm^3) (Day 14) ([3]; Day 14 after administration, listed as pomalidomide): 1,542 mm^3; anti-tumor effect compared with the solvent control group ([3]; Day 14 after administration, result in words): no significant anti-tumor effect; T/C (%) ([3]; relative tumor proliferation rate, Day 14, vs solvent control group): 68.8%; RTV (Day 14) ([3]; relative tumor volume Vt/V0, Day 14, same dosing as tumor volume): 4.22 ± 0.50; TGI (%) ([3]; tumor growth inhibition rate, Day 14, vs solvent control group): 34.0%
CO[C@H](C(=O)Nc1nnc(NC2CCC(c3cc4cc[nH]c4nn3)CC2)s1)c1cc(OC(F)(F)F)ccc1F (stereo partly shown) [Compound 14]	0.757 µM	–
COC(C(=O)Nc1nnc(N[C@H]2CC[C@@H](c3cccnn3)CC2)s1)c1cccc(OC(F)F)c1 (stereo partly shown) [Compound 11 (trifluoroacetate salt)]	0.72 µM	–
CO[C@H](C(=O)Nc1nnc(NC2CCC(c3cc(C(=O)O)cnn3)CC2)s1)c1cc(OC(F)(F)F)ccc1F (stereo partly shown) [Compound 6 (hydrochloride salt)]	1.69 µM	–
COc1cc(C(OC)C(=O)Nc2nnc(N[C@H]3CC[C@@H](c4cccnn4)CC3)s2)ccc1F (stereo partly shown) [Compound 12 (trifluoroacetate salt)]	4.71 µM	–
COC(C(=O)Nc1nnc(N[C@H]2CC[C@@H](c3cccnn3)CC2)s1)c1cccc(OC(F)(F)F)c1 (stereo partly shown) [Compound 9 (hydrochloride salt)]	0.502 µM	–
O=C(Cc1cccc(OC(F)(F)F)c1)Nc1ccc(CCCCc2nnc(NC(=O)Cc3ccccn3)s2)nn1 [CB-839, reference compound]	–	bioavailability [2]: 27.1%; half-life [2]: 4.69 h; AUC(0-inf) [2]: 27.7 µM·h; Cmax [2]: 18.1 µM
COc1cccc(C(OC)C(=O)Nc2nnc(N[C@H]3CC[C@@H](c4cccnn4)CC3)s2)c1 (stereo partly shown) [Compound 8 (trifluoroacetate salt)]	0.577 µM	–
CO[C@H](C(=O)Nc1nnc(N[C@H]2CC[C@@H](c3cccnn3)CC2)s1)c1ccccc1 [Compound 10 (hydrochloride salt)]	1.59 µM	–
COC(C(=O)Nc1nnc(NC2CCC(c3cccnn3)CC2)s1)c1cc(OC(F)(F)F)ccc1F (single isomer, unassigned) [Compound 3]	0.17 µM	–
CO[C@H](C(=O)Nc1nnc(NC2CCC(c3cc(C)cnn3)CC2)s1)c1cc(OC(F)(F)F)ccc1F (stereo partly shown) [Compound 5 (hydrochloride salt)]	0.469 µM	–
COC(C(=O)Nc1nnc(NC2CCC(c3cccnn3)CC2)s1)c1cc(OC(F)(F)F)ccc1F (single isomer, unassigned) [Compound 4]	4.9 µM	–
CO[C@H](C(=O)Nc1nnc(NC2CC=C(c3ccc(N)nn3)CC2)s1)c1cc(OC(F)(F)F)ccc1F (stereo partly shown) [Compound 7 (hydrochloride salt)]	0.133 µM	–
